Patent US11179382B2, “Methods of reversing normal aging process and extending lifespan” (MyMD Pharmaceuticals (Florida), Inc., priority 2015, dated 2021)
Where “and” joins values, the source holds several entries; their conditions need not be identical. Equal entries are not always repeated. Entries after “also recorded” stand apart in the source; their conditions may differ.

Key:
[1] = tested on: herpes labialis (herpes simplex); test: Treatment of herpes labialis (cold sores) in an individual; format: in vivo, human; conditions: 100 mg dose upon first feeling the onset of a cold sore
Description: This example illustrates administering isomyosmine to treat herpes labialis (cold sores), a type of herpes simplex occurring on the lip. An individual who experiences periodic outbreaks of herpes labialis was administered a 100 mg dose of isomyosmine upon first feeling the onset of a cold sore.

[2] = tested on: individuals (peripheral capillary oxygen saturation); test: Blood oxygen saturation (SpO2) by pulse oximetry in individuals; format: in vivo, human; conditions: one hour after a single dose (50-100 mg), seven individuals
Excerpt: This example illustrates the effect of isomyosmine on normal blood oxygen saturation levels (SpO2). SpO2 refers to peripheral capillary oxygen saturation, an estimate of the amount of oxygen in the blood. More specifically, it is the percentage of oxygenated hemoglobin (hemoglobin containing oxygen) compared to the total amount of hemoglobin in the blood (oxygenated and non-oxygenated hemoglobin). SpO2 can be measured by pulse oximetry, an indirect, non-invasive method. It works by emitting and then absorbing a light wave passing through blood vessels (or capillaries) in the fingertip. A variation of the light wave passing through the finger will give the value of the SpO2 measurement because the degree of oxygen saturation causes variations in the blood's color.

[3] = target: T1, MAO-B (Homo sapiens, UniProt P27338); test: MAO-Glo luminescent assay, MAO-B inhibition; format: biochemical; conditions: compared among isomyosmine, myosmine, anatabine, anabasine, nornicotine
T1 construct: purchased
T1 sequence (P27338 1-520): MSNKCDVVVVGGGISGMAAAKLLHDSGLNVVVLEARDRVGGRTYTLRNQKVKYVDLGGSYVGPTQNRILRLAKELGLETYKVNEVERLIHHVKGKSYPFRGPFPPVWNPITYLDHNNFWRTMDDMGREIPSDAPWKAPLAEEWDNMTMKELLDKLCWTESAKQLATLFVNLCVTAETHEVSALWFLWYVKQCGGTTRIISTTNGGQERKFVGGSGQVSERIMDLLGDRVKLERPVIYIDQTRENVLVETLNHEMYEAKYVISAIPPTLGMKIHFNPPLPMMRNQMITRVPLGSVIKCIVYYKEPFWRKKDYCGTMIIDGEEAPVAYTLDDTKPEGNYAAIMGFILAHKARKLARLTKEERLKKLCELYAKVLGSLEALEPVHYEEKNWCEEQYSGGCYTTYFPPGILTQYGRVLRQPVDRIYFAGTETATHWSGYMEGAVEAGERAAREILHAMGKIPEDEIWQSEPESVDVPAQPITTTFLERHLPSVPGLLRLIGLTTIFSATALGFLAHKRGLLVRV
Excerpt: (§1) This example describes experiments for determining monoamine oxidase (MAO) inhibition for isomyosmine and other alkaloids. MAOs are enzymes located on the outer membrane of mitochondria and are involved in the catabolism of monoamine neurotransmitters. There are two well-characterized isoenzymes: MAO-A, which predominantly catabolizes serotonin and norepinephrine, and MAO-B, which preferentially catabolizes benzylamine and phenylethylamine. Dopamine and tyramine are metabolized by both isoforms.
(§2) To detect the activity of MAO, a luminescent method (MAO-Glo Assay kit, from Promega, Cat #V1401) was used. In this method, a MAO substrate (a derivative of beetle luciferin provided in the kit) is mixed with the compound to be tested (in this case, myosmine and control compounds). Then, the MAO enzymes (either A or B, purchased separately) are added to the mixture and incubated with the reaction for 1 hour at room temperature. The MAO enzymes, if not inhibited by the test compound, will convert the substrate into methyl ester luciferin. Finally, a luciferin detection reagent (provided by the kit) is added (20 minutes at room temperature) to stop the MAO reaction and convert methyl ester luciferin into D-luciferin. […] The luminescent signal is measured and recorded using a luminometer. […]

[4] = tested on: stage-four cancer patient diagnosed with autoimmune amyloidosis; test: Treatment of a stage-four cancer patient with autoimmune amyloidosis; immunoglobulin light chain Kappa/Lambda detection in blood; format: in vivo, human; conditions: for Lambda Light Chains / Free Light Chains Ratio / Kappa Light Chains: 250 mg daily; for Lambda Light Chains: initial 6.5, standard range 5.7-26.3; for Free Light Chains Ratio: initial 75.38, standard range 0.26-1.65; for Kappa Light Chains: initial 490.0, standard range 3.3-19.4
Description: This example illustrates treating a stage-four cancer patient who had been diagnosed with autoimmune amyloidosis. At the time treatment began, the individual was bedridden under hospice care and told they had only a few days to live. The individual was administered a daily dose of 250 mg isomyosmine.
The patient's blood was tested using conventional immunoglobulin light chain Kappa/Lambda detection. The immunoglobulin kappa and lambda (Ig κ/λ) in situ hybridization (ISH) system is designed for the detection of human kappa and lambda immunoglobulin light chain messenger RNA (mRNA) in tissue sections and blood and bone marrow smears. The system uses biotin-labeled oligonucleotide probes. The probe-mRNA duplex is indirectly detected using an enzyme-conjugated antibody targeting the biotin conjugate. For color development, a chromogenic substrate is added. Enzymatic reaction of the chromogenic substrate leads to the formation of a color precipitate that is visualized by light microscopy.

[5] = tested on: surgical incisions; test: Topical administration for wound healing; format: in vivo, human; conditions: e.g., avoid scarring around surgical incisions
Excerpt: In another aspect, a method of treating a wound comprises administering to an individual in need thereof a pharmaceutical composition containing a therapeutically effective amount of isomyosmine or a pharmaceutically acceptable salt thereof.

[6] = tested on: individual being treated for type II diabetes; test: Individual with type II diabetes treated with isomyosmine; format: in vivo, human; conditions: one individual, 100 mg per day, following three months of treatment; taken off existing diabetes medication
Description: (§3) This example illustrates administering isomyosmine to treat high blood pressure. Twelve individuals experiencing high blood pressure were each administered isomyosmine at dose of 100 mg per day. […] The blood pressure of one of the individuals was measured to be 145/86 mmHg without isomyosmine in the bloodstream and was measured to be 109/59 mmHg while being treated with isomyosmine. Another of the individuals was being treated for type II diabetes at the beginning of the treatment.

[7] = target: T2, MAO-A (Homo sapiens, UniProt P21397); test: MAO-Glo luminescent assay, MAO-A inhibition; format: biochemical; conditions: compared among isomyosmine, myosmine, anatabine, anabasine, nornicotine; clorgyline positive control
T2 construct: purchased
T2 sequence (P21397 1-527): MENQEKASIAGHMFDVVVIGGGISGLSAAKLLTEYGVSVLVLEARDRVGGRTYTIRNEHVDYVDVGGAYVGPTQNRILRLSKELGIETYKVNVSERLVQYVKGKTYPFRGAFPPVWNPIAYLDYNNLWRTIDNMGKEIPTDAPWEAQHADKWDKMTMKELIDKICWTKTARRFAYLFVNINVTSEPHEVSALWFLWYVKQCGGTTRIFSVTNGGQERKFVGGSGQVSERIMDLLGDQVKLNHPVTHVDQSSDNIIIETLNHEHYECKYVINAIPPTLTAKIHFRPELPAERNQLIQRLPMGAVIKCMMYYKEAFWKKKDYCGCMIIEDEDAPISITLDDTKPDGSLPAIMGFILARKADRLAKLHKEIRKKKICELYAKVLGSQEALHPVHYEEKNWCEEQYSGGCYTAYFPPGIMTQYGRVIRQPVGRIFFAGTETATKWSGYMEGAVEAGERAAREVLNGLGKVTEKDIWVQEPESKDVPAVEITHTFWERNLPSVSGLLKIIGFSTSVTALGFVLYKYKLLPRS
Excerpt: as §1, §2

[8] = tested on: individuals experiencing high blood pressure; test: Treatment of individuals experiencing high blood pressure; format: in vivo, human; conditions: 100 mg per day
Description: as §3

For `C1=NC(c2cccnc2)CC1` (stereo not shown) [isomyosmine, 3-(3,4-dihydro-2H-pyrrol-2-yl)-pyridine], the “outbreak of cold sore” value [1] was “effective to prevent the outbreak of the cold sore”, the “blood oxygenation (result in words)” value [2] was “significant increase in blood oxygenation” and the “Dosed SpO2” value ([2]; base SpO2 94.0-97.0) was 98.0 (5×) and 99.0 (2×). The “inhibiting the activity of MAO-B (result in words, FIG. 4)” value [3] was “most potent among the five alkaloids tested; also recorded: potent inhibitor”, the “Lambda Light Chains” value ([4]; 3 weeks) was 10.9 mg/L and the “Free Light Chains Ratio” value ([4]; 3 weeks) was 55.23. The “Kappa Light Chains” value ([4]; 3 weeks) was 602.0 mg/L, the “Lambda Light Chains” value ([4]; 9 weeks) was 9.2 mg/L and the “Free Light Chains Ratio” value ([4]; 9 weeks) was 42.83. The “Kappa Light Chains” value ([4]; 9 weeks) was 394.0 mg/L, the “Lambda Light Chains” value ([4]; 12 weeks) was 7.1 mg/L and the “Free Light Chains Ratio” value ([4]; 12 weeks) was 29.58. The “Kappa Light Chains” value ([4]; 12 weeks) was 210.0 mg/L, the “Lambda Light Chains” value ([4]; 14 weeks) was 3.0 mg/L and the “Free Light Chains Ratio” value ([4]; 14 weeks) was 64.33. For the same compound, the “Kappa Light Chains” value ([4]; 14 weeks) was 193.0 mg/L, the “Lambda Light Chains” value ([4]; 17 weeks) was 3.6 mg/L and the “Free Light Chains Ratio” value ([4]; 17 weeks) was 28.89. For the same compound, the “Kappa Light Chains” value ([4]; 17 weeks) was 104.0 mg/L, the “individual's symptoms” value ([4]; daily dose of 250 mg, within two weeks of treatment, able to get out of bed and walk around) was “remarkably improved” and the “wound healing (result in words)” value [5] was “dramatically improve healing”. For the same compound, the symptoms of diabetes [6] was “no symptoms of diabetes”, the “inhibiting the enzymatic activity of MAO-A (result in words, FIG. 3)” value [7] was “most potent of the five; also recorded: potent inhibitor” and the “blood pressure while being treated” value ([8]; one individual, 145/86 mmHg without isomyosmine in the bloodstream) was 109/59. The “change in blood pressure during treatment” value ([8]; twelve individuals) was “reduction in blood pressure”.
